Measurements as given in PubChem BioAssay (NCI).
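Cultured in 96-well plates, cells were exposed to test compound for 48 hours across five concentrations. TGI: concentration producing complete growth inhibition.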

Tests used:
Test in all cases: NCI-60 cell line screen, 48 h
MDA-MB-435 = tested on: MDA-MB-435
TK-10 renal = tested on: TK-10 renal
MDA-MB-231 breast = tested on: MDA-MB-231 breast
OVCAR-8 ovarian = tested on: OVCAR-8 ovarian
HL-60(TB) leukemia = tested on: HL-60(TB) leukemia
786-0 renal = tested on: 786-0 renal
DU-145 prostate = tested on: DU-145 prostate
HCT-15 colon = tested on: HCT-15 colon
SK-MEL-28 melanoma = tested on: SK-MEL-28 melanoma
SF-268 CNS = tested on: SF-268 CNS
NCI-H23 lung = tested on: NCI-H23 lung
UACC-62 melanoma = tested on: UACC-62 melanoma
MALME-3M melanoma = tested on: MALME-3M melanoma
HCC-2998 colon = tested on: HCC-2998 colon
U251 CNS = tested on: U251 CNS
MDA-N = tested on: MDA-N
PC-3 prostate = tested on: PC-3 prostate
SR leukemia = tested on: SR leukemia
MOLT-4 leukemia = tested on: MOLT-4 leukemia
NCI-H522 lung = tested on: NCI-H522 lung
SN12C renal = tested on: SN12C renal
SF-295 CNS = tested on: SF-295 CNS
SNB-19 CNS = tested on: SNB-19 CNS
M14 melanoma = tested on: M14 melanoma
RXF 393 renal = tested on: RXF 393 renal
NCI/ADR-RES ovarian = tested on: NCI/ADR-RES ovarian
UACC-257 melanoma = tested on: UACC-257 melanoma
EKVX NSCLC = tested on: EKVX NSCLC
NCI-H226 lung = tested on: NCI-H226 lung
SNB-75 CNS = tested on: SNB-75 CNS
HOP-92 NSCLC = tested on: HOP-92 NSCLC
K-562 leukemia = tested on: K-562 leukemia
COLO 205 colon = tested on: COLO 205 colon
NCI-H460 lung = tested on: NCI-H460 lung
RPMI-8226 leukemia = tested on: RPMI-8226 leukemia
T-47D breast = tested on: T-47D breast
LOX IMVI melanoma = tested on: LOX IMVI melanoma
SK-MEL-5 melanoma = tested on: SK-MEL-5 melanoma
UO-31 renal = tested on: UO-31 renal
SK-MEL-2 melanoma = tested on: SK-MEL-2 melanoma
OVCAR-3 ovarian = tested on: OVCAR-3 ovarian
SF-539 CNS = tested on: SF-539 CNS
OVCAR-4 ovarian = tested on: OVCAR-4 ovarian
HT29 colon = tested on: HT29 colon
HOP-62 NSCLC = tested on: HOP-62 NSCLC
HCT-116 colon = tested on: HCT-116 colon
OVCAR-5 ovarian = tested on: OVCAR-5 ovarian
MCF7 breast = tested on: MCF7 breast
SK-OV-3 ovarian = tested on: SK-OV-3 ovarian
HS 578T breast = tested on: HS 578T breast
IGROV1 ovarian = tested on: IGROV1 ovarian
CCRF-CEM leukemia = tested on: CCRF-CEM leukemia
A498 renal = tested on: A498 renal
KM12 colon = tested on: KM12 colon
ACHN renal = tested on: ACHN renal
CAKI-1 renal = tested on: CAKI-1 renal
SW-620 colon = tested on: SW-620 colon
BT-549 breast = tested on: BT-549 breast
A549 NSCLC = tested on: A549 NSCLC

Work on `OC(COc1cccc2ccccc12)CN1CCOCC1` (stereo not drawn) yielded a TGI (MDA-MB-435) of over 100 µM, a TGI (TK-10 renal) of over 100 µM and a TGI (MDA-MB-231 breast) of over 100 µM. For the same molecule, the TGI (OVCAR-8 ovarian) was over 100 µM, the TGI (HL-60(TB) leukemia) was over 100 µM and the TGI (786-0 renal) was over 100 µM. It also gave a TGI (DU-145 prostate) of over 100 µM, a TGI (HCT-15 colon) of over 100 µM and a TGI (SK-MEL-28 melanoma) of over 100 µM. For the same molecule, the TGI (SF-268 CNS) was over 100 µM, the TGI (NCI-H23 lung) was over 100 µM and the TGI (UACC-62 melanoma) was over 100 µM. The TGI (MALME-3M melanoma) was over 100 µM, the TGI (HCC-2998 colon) was over 100 µM and the TGI (U251 CNS) was over 100 µM. For the same molecule, the TGI (MDA-N) was over 100 µM, the TGI (PC-3 prostate) was over 100 µM and the TGI (SR leukemia) was over 100 µM. For the same molecule, the TGI (MOLT-4 leukemia) was over 100 µM, the TGI (NCI-H522 lung) was over 100 µM and the TGI (SN12C renal) was over 100 µM. The TGI (SF-295 CNS) was over 100 µM, the TGI (SNB-19 CNS) was over 100 µM and the TGI (M14 melanoma) was over 100 µM. The TGI (RXF 393 renal) was over 100 µM, the TGI (NCI/ADR-RES ovarian) was over 100 µM and the TGI (UACC-257 melanoma) was over 100 µM. For the same molecule, the TGI (EKVX NSCLC) was over 100 µM, the TGI (NCI-H226 lung) was over 100 µM and the TGI (SNB-75 CNS) was over 100 µM. For the same molecule, the TGI (HOP-92 NSCLC) was 98.9 µM, the TGI (K-562 leukemia) was over 100 µM and the TGI (COLO 205 colon) was over 100 µM. For the same molecule, the TGI (NCI-H460 lung) was over 100 µM, the TGI (RPMI-8226 leukemia) was over 100 µM and the TGI (T-47D breast) was over 100 µM. For the same molecule, the TGI (LOX IMVI melanoma) was over 100 µM, the TGI (SK-MEL-5 melanoma) was over 100 µM and the TGI (UO-31 renal) was over 100 µM. For the same molecule, the TGI (SK-MEL-2 melanoma) was over 100 µM, the TGI (OVCAR-3 ovarian) was over 100 µM and the TGI (SF-539 CNS) was over 100 µM. The TGI (OVCAR-4 ovarian) was over 100 µM, the TGI (HT29 colon) was over 100 µM and the TGI (HOP-62 NSCLC) was over 100 µM. For the same molecule, the TGI (HCT-116 colon) was over 100 µM, the TGI (OVCAR-5 ovarian) was over 100 µM and the TGI (MCF7 breast) was over 100 µM. For the same molecule, the TGI (SK-OV-3 ovarian) was over 100 µM, the TGI (HS 578T breast) was over 100 µM and the TGI (IGROV1 ovarian) was over 100 µM. It also gave a TGI (CCRF-CEM leukemia) of over 100 µM, a TGI (A498 renal) of over 100 µM and a TGI (KM12 colon) of over 100 µM. For the same molecule, the TGI (ACHN renal) was over 100 µM, the TGI (CAKI-1 renal) was over 100 µM and the TGI (SW-620 colon) was over 100 µM. The TGI (BT-549 breast) was over 100 µM and the TGI (A549 NSCLC) was over 100 µM.
In the case of `Cc1[nH]n(-c2ncc(C(=O)O)c(=O)[nH]2)c(=O)c1CCO`, the TGI (MDA-MB-435) is reported as over 100 µM, the TGI (TK-10 renal) is reported as over 100 µM and the TGI (MDA-MB-231 breast) is reported as over 100 µM. The TGI (OVCAR-8 ovarian) was over 100 µM, the TGI (HL-60(TB) leukemia) was over 100 µM and the TGI (786-0 renal) was over 100 µM. For the same molecule, the TGI (DU-145 prostate) was over 100 µM, the TGI (HCT-15 colon) was over 100 µM and the TGI (SK-MEL-28 melanoma) was over 100 µM. It also gave a TGI (SF-268 CNS) of over 100 µM, a TGI (NCI-H23 lung) of over 100 µM and a TGI (UACC-62 melanoma) of over 100 µM. It also gave a TGI (MALME-3M melanoma) of over 100 µM, a TGI (HCC-2998 colon) of over 100 µM and a TGI (U251 CNS) of over 100 µM. It also gave a TGI (MDA-N) of over 100 µM, a TGI (PC-3 prostate) of over 100 µM and a TGI (SR leukemia) of over 100 µM. The TGI (MOLT-4 leukemia) was over 100 µM, the TGI (NCI-H522 lung) was over 100 µM and the TGI (SN12C renal) was over 100 µM. For the same molecule, the TGI (SF-295 CNS) was over 100 µM, the TGI (SNB-19 CNS) was over 100 µM and the TGI (M14 melanoma) was over 100 µM. For the same molecule, the TGI (RXF 393 renal) was over 100 µM, the TGI (NCI/ADR-RES ovarian) was over 100 µM and the TGI (UACC-257 melanoma) was over 100 µM. It also gave a TGI (EKVX NSCLC) of over 100 µM, a TGI (NCI-H226 lung) of over 100 µM and a TGI (SNB-75 CNS) of over 100 µM. It also gave a TGI (HOP-92 NSCLC) of over 100 µM, a TGI (K-562 leukemia) of over 100 µM and a TGI (COLO 205 colon) of over 100 µM. The TGI (NCI-H460 lung) was over 100 µM, the TGI (RPMI-8226 leukemia) was over 100 µM and the TGI (T-47D breast) was over 100 µM. The TGI (LOX IMVI melanoma) was over 100 µM, the TGI (SK-MEL-5 melanoma) was over 100 µM and the TGI (UO-31 renal) was over 100 µM. For the same molecule, the TGI (SK-MEL-2 melanoma) was over 100 µM, the TGI (OVCAR-3 ovarian) was over 100 µM and the TGI (SF-539 CNS) was over 100 µM. The TGI (OVCAR-4 ovarian) was over 100 µM, the TGI (HT29 colon) was over 100 µM and the TGI (HOP-62 NSCLC) was over 100 µM. It also gave a TGI (HCT-116 colon) of over 100 µM, a TGI (OVCAR-5 ovarian) of over 100 µM and a TGI (MCF7 breast) of over 100 µM. For the same molecule, the TGI (SK-OV-3 ovarian) was over 100 µM, the TGI (HS 578T breast) was over 100 µM and the TGI (IGROV1 ovarian) was over 100 µM. For the same molecule, the TGI (CCRF-CEM leukemia) was over 100 µM, the TGI (A498 renal) was over 100 µM and the TGI (KM12 colon) was over 100 µM. For the same molecule, the TGI (ACHN renal) was over 100 µM, the TGI (CAKI-1 renal) was over 100 µM and the TGI (SW-620 colon) was over 100 µM. For the same molecule, the TGI (BT-549 breast) was over 100 µM and the TGI (A549 NSCLC) was over 100 µM.
